Measured values reported in US7067619B2, “Integrin-binding peptides” (La Jolla Cancer Research Foundation, priority 1993, dated 2006).
Where two headings read alike, the source gives them in different places. Bridge positions count the residues as written; N and C are the ends. Ends that are not written are not given here.

Experiments:
α5β1 integrin [1] = test: Cell attachment to immobilized […] peptide (B2/α27 vs B2/Cl cells); type: cell-based, human; conditions: FIG. 8
Source text: (§1) Cell lines expressing fibronectin-binding integrins were used to determine peptide activities against these integrins in the cell attachment assay described by Ruoslahti et al., Meth. Enzymol., 144:803–831 (1982), which is incorporated herein by reference. Human plasma fibronectin was iodinated as described by Morla and Ruoslahti, J. Cell Biol., 118:421–429 (1992), which is incorporated herein by reference. Vitronectin was obtained from Telios Pharmaceuticals (San Diego, Calif.). […] Peptide was coated on plastic by incubating at 37° C. for 2 hours in phosphate buffered saline containing 0.25% glutaraldehyde to crosslink the peptide. Free binding sites on the plastic were blocked using BSA. Approximately 1×10^5 cells per well were allowed to attach for 1 hour in the presence or absence of competing peptides. Bound cells were quantitated by staining with 0.1% amido black.
In addition to the inhibition of cell attachment to natural ligands, attachment and inhibition assays were performed using the […] [SEQ ID NO:6] peptide as substrate. The microliter well were coated with […] [SEQ ID NO:6] using glutaraldehyde as described above. Briefly, peptide was coated on plastic by incubating at 37° C. for 2 hours in phosphate buffered saline containing 0.25% glutaraldehyde to crosslink the peptide and free binding sites on the plastic were blocked using BSA. The wells were then saturated with BSA followed by the addition of 50,000 B2/α27 or B2/Cl cells in the presence or absence of the indicated inhibitor. […] Bound cells were quantitated by staining with 0.1% amido black.

α5β1 integrin [2] = test: Inhibition of α5β1-mediated cell attachment to fibronectin; type: cell-based, human
Source text: Cell lines expressing different integrins were used to examine peptide inhibition of integrin function. A human melanoma cell line, C8161, a fibroblast cell line, WI-38, and an osteosarcoma cell line, MG-63 (described by Seftor et al., Canc. Res., 53:3411–3415 (1993); Vogel et al., J. Biol. Chem., 265:5934–5937 (1990); and Pytela et al. (1985), supra, respectively, each of which is incorporated herein by reference) attach to fibronectin through α5β1 integrin, as does B2/α27, a CHO cell line transfected with human α5. B2/C1, the control parental CHO line (Bauer et al., J. Cell. Biol. 116:477–487 (1992), which is incorporated herein by reference), attaches via […]. CHO cells C11 and NIH 3T3 cells express the endogenous Chinese hamster and mouse α5β1 integrins, respectively. The human melanoma cells, A375-M, attach to fibronectin through both α5β1 and α4β1 integrins (Mould et al., J. Biol. Chem. 265:4020–4024 (1990), which is incorporated herein by reference). CHO cell line B2/v7 express the αvβ1 integrin (Zhang et al., J. Cell. Biol. 122:235–242 (1993), which is incorporated herein by reference). The vitronectin-binding integrins […] and αvβ3 were assayed using the cell line HT-29 and IMR-90, respectively (Koivunen et al., J. Biol. Chem. 268: 20205–20210 (1993)).
as §1
Inhibition of cell attachment mediated by either fibronectin- or vitronectin-binding integrins was performed to determine peptide specificity in a biologically relevant system. The assays and cell lines were performed as described above. FIGS. 5 and 6 show the results of cell attachment mediated by the fibronectin binding integrins α5β1 and αvβ1.

α5β1 integrin [3] = target: T1, α5β1 integrin (Homo sapiens, UniProt P05556+P08648); test: Panning and binding of peptide-displaying phage on α5β1 integrin; conditions: phage-displayed sequence
T1 construct: The αvβ3, αvβ5 and α5β1 integrins were isolated from human placental extracts; from tissue; host or cells: human placenta
Source text: (§2) In addition, most of the phage-binding activity in the αvβ3 preparation was captured into microliter wells coated with antibodies against the αv or β3 subunits as described previously (Koivunen et al., J. Biol. Chem., 268:20205–10 (1993). The αIIbβ3 integrin was isolated from outdated platelets (Pytela et al., Science, 231:1559–1562 (1986)).
Peptide libraries were constructed in fuse 5 vector (Scott and Smith, Science 249:386–390 (1990)) as described previously (Koivunen et al., J. Cell Biol., 124:373–380 (1994). The CX5C, CX6C, CX7C and CX9 [SEQ ID NOs:39–42, respectively] libraries were prepared using synthetic oligonucleotides containing core sequences TGT(NNK)5TGT, TGT(NNK)6TGT, TGT(NNK)7TGT and TGT(NNK)9 [SEQ ID NOS:43–46, respectively] (N=equal molar mixture of A, C, G, T; K=G or T), respectively. The oligonucleotides were made double-stranded by PCR amplification with 5 cycles, purified and ligated to the N-terminus of pIII gene of fuse 5 vector. The CX5C, CX6C, CX7C and CX9 [SEQ ID NOS:39–42, respectively] vectors were transfected into MC1061 cells using 16, 60, 263 and 250 electroporations, respectively. Bacteria were cultured for 24 hours in the presence of 20 μg/ml of tetracycline, and phage were collected from the supernatant by precipitation twice with polyethylene glycol. The phage pellets were dissolved at approximately 10^13 transducing units (TU)/ml in TBS buffer containing 0.02% NaN3 and stored at 4° C. The yields of the CX5C, CX6C, CX7C and CX9 [SEQ ID NOS:39–42, respectively] primary libraries were 3.5×10^8, 1.1×10^9, 4.5×10^5 and 3.5×10^8 clones, respectively. […]
Binding of individual cloned phage to integrins was studied in microliter wells as described in Koivunen et al., J. Cell. […] Phage that were bound were determined by their ability to infect F-pilus positive K91kan bacteria. Bacteria were grown overnight in microliter wells in the presence of tetracycline and the absorbance indicative of bacterial growth was read at 600 nm with an ELISA plate reader.

α5β1 integrin [4] = target: T1, α5β1 integrin; test: Inhibition of peptide-displaying phage binding to α5β1 integrin by synthetic peptides
Description: Phage clone containing the RGDGW [SEQ ID NO:9] sequence was incubated for 1 hour in integrin-coated microliter wells in the presence of the competing peptides. After extensive washing, the phage remained bound were determined as described in Example XII.
as §2
(§3) Binding of individual cloned phage to integrins was studied in microliter wells as described in Koivunen et al., J. Cell. Biol., 124:373–380 (1994). Phage binding to α5β1 and αvβ3 were assayed in TBS buffer containing 1% BSA and 1 mM MnCl2 and binding to αvβ5 in the presence of 1 mM CaCl2. Phage that were bound were determined by their ability to infect F-pilus positive K91kan bacteria. Bacteria were grown overnight in microliter wells in the presence of tetracycline and the absorbance indicative of bacterial growth was read at 600 nm with an ELISA plate reader.
Relative affinities of the […] [SEQ ID NO:12] and CRGDC [SEQ ID NO:37] peptides were determined by inhibition of binding of peptide-displaying phage to α5β1 integrin. Peptide-displaying phage were constructed as described by Scott and Smith, Science 249:386–390 (1990) and Example IV. Microwell plates were coated with various integrins as described by Koivunen et al., J. Biol. Chem., 268:20205–10 (1993) and Example II.
The binding of […] [SEQ ID NO:12]-containing peptide ligands to α5β1 integrin was performed as follows. RRETAWA [SEQ ID NO:8]-displaying phage were incubated for 1 hour in the presence of various concentrations of the cyclic peptides containing […] [SEQ ID NO:12] and containing CRGDC [SEQ ID NO:37] in microliter wells coated with the α5β1 integrin. Binding was quantitated by adding K91kan bacteria directly to the wells and growing the bacteria overnight at room temperature (Smith and Scott, Meth. Enzymol., 217:228–257 (1993), which is incorporated herein by reference).
Additional peptide motifs were tested as follows. ELRGDGW-displaying [SEQ ID NO:4] phage were added together with various concentrations of the cyclic peptides containing […] [SEQ ID NO:12] and containing CRGDC [SEQ ID NO:37] into microliter wells coated with the α5β1 integrin, incubated for 1 hour at room temperature and binding to wells was quantitated.

αvβ3 integrin = αvβ3 integrin (Homo sapiens, UniProt P05106+P06756); test: Inhibition of peptide-displaying phage binding to αvβ3 integrin by synthetic peptides; set-up: The αvβ3, αvβ5 and α5β1 integrins were isolated from human placental extracts; from tissue; host or cells: human placenta; conditions: CRGDCL-displaying phage, αvβ3-coated wells; FIG. 3 (result sentence prints α5β1)
Source text: as §2, §3
The ability of […] [SEQ ID NO:12] and CRGDC [SEQ ID NO:37] containing peptides to inhibit binding of CRGDCL-displaying [SEQ ID NO:7] phage to the microwells coated with αvβ3 integrin also was examined. CRGDCL-displaying [SEQ ID NO:7] phage were added to a well and either cyclic […] [SEQ ID NO:6] or cyclic […] [SEQ ID NO:5] was added to compete for binding. Binding was quantitated as described above.

α4β1 = α4β1 (Homo sapiens, UniProt P05556+P13612); conditions: Nowlin et al., J. Biol. Chem. 268:20352–59 (1993); cited from earlier work
α5β1 = α5β1 (Homo sapiens, UniProt P05556+P08648); conditions: Nowlin et al., J. Biol. Chem. 268:20352–59 (1993); cited from earlier work
α5β1, sequence (P08648 42-894 limits assumed): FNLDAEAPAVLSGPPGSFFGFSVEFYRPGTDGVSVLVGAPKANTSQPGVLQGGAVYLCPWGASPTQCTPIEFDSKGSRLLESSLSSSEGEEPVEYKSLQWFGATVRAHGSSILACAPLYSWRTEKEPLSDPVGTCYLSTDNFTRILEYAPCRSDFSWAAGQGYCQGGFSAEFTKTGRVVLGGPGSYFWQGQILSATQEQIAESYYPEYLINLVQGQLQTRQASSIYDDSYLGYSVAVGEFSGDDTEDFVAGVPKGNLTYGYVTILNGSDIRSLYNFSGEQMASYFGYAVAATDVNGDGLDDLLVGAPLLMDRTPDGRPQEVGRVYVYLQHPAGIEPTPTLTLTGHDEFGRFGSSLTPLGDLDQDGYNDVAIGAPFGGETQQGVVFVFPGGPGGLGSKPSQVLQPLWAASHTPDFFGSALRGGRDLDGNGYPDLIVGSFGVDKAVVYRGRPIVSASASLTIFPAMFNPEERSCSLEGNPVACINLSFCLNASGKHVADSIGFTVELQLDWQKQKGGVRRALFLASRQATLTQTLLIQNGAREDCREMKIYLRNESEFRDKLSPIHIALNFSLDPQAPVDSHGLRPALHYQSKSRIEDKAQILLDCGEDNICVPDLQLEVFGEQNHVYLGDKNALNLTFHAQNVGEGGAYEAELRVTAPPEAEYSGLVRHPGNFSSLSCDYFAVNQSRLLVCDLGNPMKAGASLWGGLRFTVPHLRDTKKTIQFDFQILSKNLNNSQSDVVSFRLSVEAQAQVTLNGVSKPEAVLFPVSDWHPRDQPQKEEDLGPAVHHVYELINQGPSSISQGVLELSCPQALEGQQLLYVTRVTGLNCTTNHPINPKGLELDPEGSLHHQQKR
α5β1, sequence (P08648 895-1049 partner limits assumed): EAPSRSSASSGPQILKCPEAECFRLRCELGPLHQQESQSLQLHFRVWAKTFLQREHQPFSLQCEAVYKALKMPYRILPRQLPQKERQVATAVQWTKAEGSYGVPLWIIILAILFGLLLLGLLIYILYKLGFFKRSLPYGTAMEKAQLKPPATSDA
α5β1, sequence (P05556 21-798): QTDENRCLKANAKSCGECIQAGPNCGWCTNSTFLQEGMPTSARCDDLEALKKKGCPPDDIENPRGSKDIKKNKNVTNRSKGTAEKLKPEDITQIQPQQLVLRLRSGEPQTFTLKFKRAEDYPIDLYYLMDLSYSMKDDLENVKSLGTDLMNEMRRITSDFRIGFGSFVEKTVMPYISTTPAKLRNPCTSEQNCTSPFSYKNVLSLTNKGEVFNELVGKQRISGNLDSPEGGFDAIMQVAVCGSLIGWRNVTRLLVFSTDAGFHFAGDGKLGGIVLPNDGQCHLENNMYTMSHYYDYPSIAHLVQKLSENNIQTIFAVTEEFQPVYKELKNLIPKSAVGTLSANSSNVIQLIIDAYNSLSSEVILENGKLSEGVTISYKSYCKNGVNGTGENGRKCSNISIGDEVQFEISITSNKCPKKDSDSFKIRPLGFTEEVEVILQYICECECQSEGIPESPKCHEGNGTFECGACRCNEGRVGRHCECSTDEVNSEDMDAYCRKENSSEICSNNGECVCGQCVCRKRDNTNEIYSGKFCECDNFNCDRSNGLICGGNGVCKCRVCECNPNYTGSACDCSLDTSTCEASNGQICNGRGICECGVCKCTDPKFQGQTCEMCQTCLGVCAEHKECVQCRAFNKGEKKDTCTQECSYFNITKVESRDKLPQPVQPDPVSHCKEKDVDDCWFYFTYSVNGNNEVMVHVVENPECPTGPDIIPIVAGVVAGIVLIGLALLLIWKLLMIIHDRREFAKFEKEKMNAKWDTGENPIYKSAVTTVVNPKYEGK

T1 sequence (P08648 42-894 limits assumed): as the sequence (P08648 42-894 limits assumed) above
T1 sequence (P08648 895-1049 partner limits assumed): as the sequence (P08648 895-1049 partner limits assumed) above
T1 sequence (P05556 21-798): as the sequence (P05556 21-798) above
α4β1, sequence (P13612 34-1032): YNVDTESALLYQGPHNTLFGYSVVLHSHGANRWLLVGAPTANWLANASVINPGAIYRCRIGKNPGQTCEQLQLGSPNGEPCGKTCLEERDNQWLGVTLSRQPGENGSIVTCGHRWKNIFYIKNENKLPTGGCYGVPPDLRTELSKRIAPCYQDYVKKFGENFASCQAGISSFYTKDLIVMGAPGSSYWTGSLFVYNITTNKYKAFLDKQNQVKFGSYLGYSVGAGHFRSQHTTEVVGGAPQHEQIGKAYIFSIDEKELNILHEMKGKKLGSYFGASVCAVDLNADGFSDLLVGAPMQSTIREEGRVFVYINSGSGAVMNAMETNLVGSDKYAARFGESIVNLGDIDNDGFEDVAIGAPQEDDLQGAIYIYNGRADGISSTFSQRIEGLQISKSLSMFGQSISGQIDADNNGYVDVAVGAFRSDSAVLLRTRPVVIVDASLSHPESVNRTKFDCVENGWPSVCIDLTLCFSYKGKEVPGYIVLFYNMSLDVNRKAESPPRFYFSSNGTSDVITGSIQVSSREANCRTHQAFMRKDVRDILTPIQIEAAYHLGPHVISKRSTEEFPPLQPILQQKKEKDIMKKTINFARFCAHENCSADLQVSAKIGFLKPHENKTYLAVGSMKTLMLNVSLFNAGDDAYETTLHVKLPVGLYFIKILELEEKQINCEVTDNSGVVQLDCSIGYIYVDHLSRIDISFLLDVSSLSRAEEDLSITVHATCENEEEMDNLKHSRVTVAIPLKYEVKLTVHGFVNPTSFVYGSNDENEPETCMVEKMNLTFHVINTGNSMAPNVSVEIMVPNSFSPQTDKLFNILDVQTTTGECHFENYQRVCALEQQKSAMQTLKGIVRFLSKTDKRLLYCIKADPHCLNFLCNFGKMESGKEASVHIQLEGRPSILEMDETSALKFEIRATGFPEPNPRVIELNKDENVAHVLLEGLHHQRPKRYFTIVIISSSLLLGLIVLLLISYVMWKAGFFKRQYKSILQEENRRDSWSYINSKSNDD
α4β1, sequence (P05556 21-798): as the sequence (P05556 21-798) above
αvβ3 integrin, sequence (P06756 31-889 limits assumed): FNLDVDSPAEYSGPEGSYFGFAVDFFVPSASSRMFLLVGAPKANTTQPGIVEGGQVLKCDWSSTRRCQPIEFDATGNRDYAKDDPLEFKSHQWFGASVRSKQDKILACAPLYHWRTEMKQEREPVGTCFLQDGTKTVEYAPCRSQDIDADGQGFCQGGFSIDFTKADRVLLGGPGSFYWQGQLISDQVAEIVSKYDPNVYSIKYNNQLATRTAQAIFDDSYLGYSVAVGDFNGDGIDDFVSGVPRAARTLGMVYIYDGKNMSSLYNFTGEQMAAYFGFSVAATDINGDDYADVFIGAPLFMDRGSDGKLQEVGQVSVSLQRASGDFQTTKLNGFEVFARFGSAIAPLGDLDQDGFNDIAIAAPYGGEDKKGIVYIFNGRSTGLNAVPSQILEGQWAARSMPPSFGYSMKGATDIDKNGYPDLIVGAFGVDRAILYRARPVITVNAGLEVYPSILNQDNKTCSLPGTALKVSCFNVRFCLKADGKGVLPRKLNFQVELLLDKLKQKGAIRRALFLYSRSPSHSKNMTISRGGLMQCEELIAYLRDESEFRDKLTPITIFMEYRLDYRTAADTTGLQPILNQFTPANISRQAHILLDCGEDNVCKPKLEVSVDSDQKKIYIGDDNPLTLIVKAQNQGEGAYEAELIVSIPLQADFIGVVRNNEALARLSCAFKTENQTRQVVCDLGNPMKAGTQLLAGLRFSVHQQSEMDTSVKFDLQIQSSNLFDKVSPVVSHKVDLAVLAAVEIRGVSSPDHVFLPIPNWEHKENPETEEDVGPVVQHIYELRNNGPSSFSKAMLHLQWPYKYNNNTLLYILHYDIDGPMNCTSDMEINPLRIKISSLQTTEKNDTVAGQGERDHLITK
αvβ3 integrin, sequence (P06756 891-1048 partner limits assumed): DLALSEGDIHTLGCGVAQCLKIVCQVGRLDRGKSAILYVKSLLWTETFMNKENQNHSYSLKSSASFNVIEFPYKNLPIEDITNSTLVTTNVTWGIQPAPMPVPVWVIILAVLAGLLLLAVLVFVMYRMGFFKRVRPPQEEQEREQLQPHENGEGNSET
αvβ3 integrin, sequence (P05106 27-788): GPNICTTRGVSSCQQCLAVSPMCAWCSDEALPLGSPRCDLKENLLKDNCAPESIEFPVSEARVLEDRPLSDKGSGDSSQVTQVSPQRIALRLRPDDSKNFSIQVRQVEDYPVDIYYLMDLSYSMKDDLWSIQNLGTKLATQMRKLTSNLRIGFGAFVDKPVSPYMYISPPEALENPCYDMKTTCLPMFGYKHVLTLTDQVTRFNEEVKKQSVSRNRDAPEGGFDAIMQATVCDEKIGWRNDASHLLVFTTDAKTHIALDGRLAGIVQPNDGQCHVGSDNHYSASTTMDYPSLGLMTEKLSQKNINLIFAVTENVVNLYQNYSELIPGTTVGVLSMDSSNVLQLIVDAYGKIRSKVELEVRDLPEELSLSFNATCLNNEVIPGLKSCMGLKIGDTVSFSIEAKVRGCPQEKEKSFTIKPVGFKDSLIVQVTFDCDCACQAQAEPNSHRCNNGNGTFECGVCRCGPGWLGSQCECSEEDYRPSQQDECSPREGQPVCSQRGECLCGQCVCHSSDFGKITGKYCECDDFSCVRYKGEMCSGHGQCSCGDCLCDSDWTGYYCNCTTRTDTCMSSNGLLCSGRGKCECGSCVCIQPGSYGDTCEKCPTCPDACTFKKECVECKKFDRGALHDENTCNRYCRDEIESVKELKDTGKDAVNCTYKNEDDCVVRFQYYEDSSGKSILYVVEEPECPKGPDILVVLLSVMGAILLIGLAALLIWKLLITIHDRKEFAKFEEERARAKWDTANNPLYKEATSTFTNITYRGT

For `O=C(O)CN(CCN(CC(=O)O)CC(=O)O)CC(=O)O` [EDTA, reference compound], the “inhibition of B2/α27 attachment to immobilized RRETAWA-containing peptide” value (α5β1 integrin [1]; inhibitor at 10 mM) was “inhibited”.
In the case of CRGDGWC [A*CRGDGWC*G], the IC50 (α5β1 integrin [2]; B2/a27 cells (human α5, CHO β1), FIG. 11, read-out: IC50 of inhibition of attachment of B2/a27 cells to fibronectin) is reported as 6 µM, the “potency relative to *CRGDC* in B2/a27 attachment to fibronectin” value (α5β1 integrin [2]; B2/a27 cells, more potent than *CRGDC*) is reported as 7 fold and the “potency relative to *CRRETAWAC* in B2/a27 attachment to fibronectin” value (α5β1 integrin [2]; B2/a27 cells, more potent than *CRRETAWAC*) is reported as 7 fold. The “potency relative to *CRRETAWAC* in MG 63 cells” value (α5β1 integrin [2]; MG 63 cells, more potent than *CRRETAWAC*) was 4 fold, the IC50 (α5β1 integrin [2]; MG 63 cells, read-out: IC50 of inhibition of attachment of MG 63 cells to fibronectin) was 10 µM and the “improvement in activity compared to linear GRGDSP” value (α5β1 integrin [2]; α5β1-mediated attachment to fibronectin) was “about 50 fold”. The “binding of peptide-displaying phage to the α5β1 integrin” value (α5β1 integrin [3]) was “among the best binders” and the “activity in inhibiting binding of RGD-displaying phage to α5β1 relative to *CRGDC*” value (α5β1 integrin [4]; RGDGW phage, more active than *CRGDC*, FIG. 9) was 5 fold.
In the case of CRSETYWKC, the “binding of peptide-displaying phage to the α5β1 integrin” value (α5β1 integrin [3]) is reported as “selectively bind”.
In the case of “GACRGDCLGA (disulfide 3-7 (inferred)) [reference compound]”, the “inhibition of B2/α27 attachment to immobilized RRETAWA-containing peptide” value (α5β1 integrin [1]; inhibitor at 1 mM) is reported as “inhibited”, the “inhibition of binding of CRGDCL-displaying phage to integrin-coated wells” value (αvβ3 integrin) is reported as “completely inhibited” and the “inhibition of binding of ELRGDGW-displaying phage to α5β1 integrin” value (α5β1 integrin [4]; ELRGDGW-displaying phage, CRRETAWAC compared with CRGDC, FIG. 2) is reported as “approximately the same degree”.
With GRGESP [reference compound] the “effect on α5β1-mediated cell attachment to fibronectin” value (α5β1 integrin [2]; B2/α27 cells, FIG. 5) was “no effect” and the “effect on RRETAWA-displaying phage binding to α5β1” value (α5β1 integrin [4]; RRETAWA-displaying phage, FIG. 4) was “no effect”.
In the case of RCD(ThioP)C, the “binding to α4β1” value (α4β1) is listed as “high affinity” and the “binding to α5β1” value (α5β1) is listed as “high affinity”.
